Ends that are not written are not given here. Peptide text beside a SMILES is read from it.

Data set [1] in a line: peptide binding to non-oxidized and oxidized lipids (SPR). The note with it: immobilized peptide; RU normalized to DMPC. How it is done: FIGS. 25A-25O show peptide binding activity to non-oxidized and oxidized lipids via SPR for indicated peptides. Peptides were reconstituted to 50 μg/mL in 10 mM acetate buffer, pH 4.5 and immobilized to ˜200 RU on a CM5 chip via amine coupling. Non-oxidized lipids (DMPC & POPC) and oxidized lipids (POVPC & KOdiA-PC) were diluted to 100 µM in HBS-EP running buffer and exposed to the chip for binding (n=3) at a flow rate of […] for 120 seconds. The surface was regenerated with 20% EtOH. T-001 served as a positive control and T-031 served as a negative control on each chip. For each peptide, the RU response for all lipids was normalized to the DMPC RU values.

Data set [2] in a line: DMPC solubility assay, 0.5 mM DMPC (turbidity reduction). The conditions noted are these: FIGS. 2A-2D and 3A-3C. In kind it is biochemical. An outline of the steps:
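Peptides (100 μM final, or 3.16-100 μM for titrations) incubated with 0.5 mM DMPC in water for 15 minutes at room temperature. Turbidity read as absorbance at 405 nm; EC50 from non-linear regression, mean+SD over two runs.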

Another data set relates to HepG2 cells. The experiment in a line: HepG2 GAG dependent cholesterol import (with or without heparin). In kind it is cell-based. The conditions noted are these: HepG2, 10 μM peptide, with or without 100 μg/mL heparin. The method, then: HepG2 cells were seeded on 96-well plates at 10,000 cells per well and grown to confluence. A 2× solution of 500 μM DMPC and 50 μM BODIPY-Cholesterol with or without 100 μg/mL heparin was prepared in serum free EMEM. Peptides were diluted to 20 μM in serum-free EMEM (a 2× solution). Peptides were added to lipid solution in equal parts (60 μL each) and incubated for 1 hour at 37° C. HepG2 cells were serum starved in serum-free EMEM for 1 hour at 37° C. Peptide: Lipid complexes (100 μL total volume per well) were transferred to HepG2 cells for 2 hours at 37° C. Cells were washed, fixed, and intracellular fluorescence was read on Promega GloMax at 475 nm excitation, 500-550 emission. Fluorescence values were background corrected from no treatment conditions. Data are presented ±SD for 2 runs.

Data set [3] deals with T1, LDLR (Homo sapiens, UniProt P01130). The experiment in a line: lipid-dependent LDLR binding (SPR), single concentration. The conditions noted are these: 1 μM peptide with or without 25 μM DMPC. The method, then:
Peptides were diluted in 1×HBS-N buffer with 1 mM CaCl2 to a final concentration of 1 μM and incubated with or without 25 μM DMPC for 1 hour at RT to form lipid complexes. Each peptide was tested in duplicate. LDLR was diluted to 10 μg/mL in 10 mM acetate buffer pH 4.5 and was immobilized (˜400RU) on a CM5 chip via amine coupling utilizing 1×HBS-P+ buffer with 1 mM CaCl2. Test peptides (with or without DMPC) were exposed to immobilized LDLR at a flow rate of […] for 120 seconds in HBS-N with 1 mM CaCl2. Between cycles the surface was regenerated with 3, 30 second injections of 10 mM NaOH and 100 mM EDTA. Data are plotted as max RU values, averaged from three separate runs.
Target sequence in this assay (P01130 22-860): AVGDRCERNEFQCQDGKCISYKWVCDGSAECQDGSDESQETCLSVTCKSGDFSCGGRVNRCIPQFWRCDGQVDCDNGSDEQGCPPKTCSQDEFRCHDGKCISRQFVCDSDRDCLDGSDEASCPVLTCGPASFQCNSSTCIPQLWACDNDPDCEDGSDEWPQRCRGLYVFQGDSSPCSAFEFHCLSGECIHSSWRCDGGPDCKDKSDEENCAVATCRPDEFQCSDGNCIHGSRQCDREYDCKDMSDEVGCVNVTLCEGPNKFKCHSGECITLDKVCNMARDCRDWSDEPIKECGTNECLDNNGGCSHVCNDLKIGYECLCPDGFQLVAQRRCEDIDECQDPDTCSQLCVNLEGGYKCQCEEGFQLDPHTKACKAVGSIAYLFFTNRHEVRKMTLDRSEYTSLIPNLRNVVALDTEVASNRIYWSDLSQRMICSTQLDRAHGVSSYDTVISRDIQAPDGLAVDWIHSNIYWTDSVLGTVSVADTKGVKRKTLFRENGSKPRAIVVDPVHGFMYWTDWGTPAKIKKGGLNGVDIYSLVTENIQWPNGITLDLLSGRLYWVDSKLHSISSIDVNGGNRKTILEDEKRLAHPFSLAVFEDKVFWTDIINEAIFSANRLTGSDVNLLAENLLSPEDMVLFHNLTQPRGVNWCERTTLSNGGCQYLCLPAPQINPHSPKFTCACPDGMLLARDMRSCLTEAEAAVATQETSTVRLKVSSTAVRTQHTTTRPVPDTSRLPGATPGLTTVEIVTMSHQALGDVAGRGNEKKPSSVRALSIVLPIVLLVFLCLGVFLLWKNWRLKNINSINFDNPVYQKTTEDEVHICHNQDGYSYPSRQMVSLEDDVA

Another data set relates to C57BL/6J mice. The experiment in a line: tolerability testing in mice after intravitreal injection (H&E histopathology). It is filed as in vivo, mouse. The note with it: IVT, 520 μM, seven days. The text has this: Seven days following IVT injection, eyes were harvested and prepared for hematoxylin and eosin staining. A blinded veterinarian performed histopathological analysis of tissue slices to determine whether the peptides induced inflammation or retinal disruption.

The target in data set [4] is T1, LDLR. Kind of data set: LDLR binding (SPR), high surfactant preparation. An outline of the steps:
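Multi-cycle kinetics fitted 1:1: peptide flowed at 30 μL/sec for 120 seconds over immobilised LDLR (amine coupling, CM5, 1000 RU) in running buffer HBS-P+ plus 1 mM CaCl2. Five concentrations per peptide, 1:3 serial from 5 μM; surface regenerated between cycles with 50 mM NaOH/100 mM EDTA.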
Target sequence in this assay (P01130 22-860): as above

The next data set has as its system HMC3 cells. The experiment in a line: HMC3 cholesterol efflux. It is filed as cell-based, human. The method, then: (§1) FIGS. 27A-27B and FIG. 28 illustrate HMC3 cholesterol efflux. Fully confluent 96-well plates of HMC3 cells were treated for 1 hour in serum-free EMEM containing 10 mM methyl-β-cyclodextrin, 100 μM cholesterol, and 25 μM BODIPY cholesterol. Cells were then washed and incubated overnight in serum free EMEM containing 1 μM LXR agonist GW3965, 2 μg/mL ACAT inhibitor, and 0.2% BSA (LXR Agonist treated), or serum-free EMEM containing 2 μg/mL ACAT inhibitor, and 0.2% BSA (Control). Cells were washed and incubated with 20 μM peptides diluted in serum-free Fluorobrite DMEM for 4 hours at 37° C. Media was transferred to a new 96-well plate and fresh serum-free Fluorobrite DMEM was placed on the cells. Media and cellular fluorescence were read on a Promega GloMax at 475 nm excitation, 500-550 emission. Fluorescence values were background corrected from no treatment conditions and percent efflux was calculated by the following equation: % efflux=(Media Fluorescence values)/(Media+Cell Fluorescence values). Data are presented as mean+SD over two runs per peptide.
as §1, with “FIGS. 30A-30J show” for “FIGS. 27A-27B and FIG. 28 illustrate”, “cholesterol efflux titration curves for the indicated peptides.” for “cholesterol efflux.”, “μM” for “μM LXR agonist”, “or serum free” for “or serum-free”, “with 0-100” for “with 20”, “peptides serially” for “peptides”

Data set [5] can be described thus: DMPC solubility titration, 1 mM DMPC. It is filed as biochemical. The note with it: 3.16-100 μM peptides, 15 minutes. How it is done: FIGS. 4A-4B illustrate a screening assay based on DMPC solubility, measured by reducing turbidity of DMPC liposome solutions, for a subset of the peptides in FIGS. 1B-1I. FIGS. 4A-4B illustrate DMPC solubility titration curves. Peptide stocks were diluted to 200 μM in H2O (a 2× solution) and serially diluted in H2O over 4 concentrations, then 50 μL of peptide solutions were distributed in triplicate into 96-well plates. A 2 mM solution of 1,2-dimyristoyl-sn-glycero-3-phosphocholine (DMPC) in H2O was prepared, and using a multichannel pipet, 50 μL DMPC solution was rapidly added to the plate. Peptide and lipid solutions were incubated at room temperature for 15 minutes with final concentrations of 3.16-100 μM peptides and 1 mM DMPC. After 15 minutes, absorbance was read on a plate reader at 405 nm. […] Data are presented as mean+SD over two runs. Non-linear regression was used to calculate EC50 values.

Data set [6] has as its target T1, LDLR. The experiment in a line: KD, Peptide (μM). The text has this: Table printed on a drawing sheet, FIG. 24B
Title: Buffer: HBS + 0.005% P20
Head of the field: KD, Peptide (μM)
The patent's description of the figure: FIGS. 24A-24B are tables showing the binding kinetics results of LDLR binding assays (SPR), lipid-dependent binding with a low-surfactant preparation as described herein for select peptides shown in FIG. 1A-1I.
First copying reader's note: Continued from FIG. 24A; KD values are LDLR binding by SPR for the peptide alone and for its DMPC lipid complex, with the error given in the same cell after ±.
Where the first naming reader finds the target: description_of_the_figure: FIGS. 24A-24B are tables showing the binding kinetics results of LDLR binding assays (SPR)
Target sequence in this assay (P01130 22-860 limits assumed): as the sequence (P01130 22-860) above

The test system of another data set is ARPE-19 cells. Kind of data set: ARPE-19 cell viability assay (Cell Titer Glo). The conditions noted are these: 100 μM peptide, 1.5 hours. It is filed as cell-based, human. The method, then:
ARPE-19 cells were seeded in 96-well plates at 25,000 cells/well and allowed to adhere to the plate surface for at least 24 hours. Peptides were diluted in serum-free DMEM: F12 to a final concentration of 100 μM. Cells were washed, then incubated in 100 μM peptide solution for 1.5 hours at 37° C. Plates were brought to room temperature for 30 minutes, then washed with DPBS. Cells were incubated in a 1:1 mixture of DPBS and Cell Titer Glo 2.0 Reagent for 10 minutes at room temperature, then cell luminescence was read on a plate reader. Viability values were background corrected, and 0% viability is determined by luminescence values of cells treated with 1% Triton-X-100. Data are presented as mean+SD over two separate runs.

With “T-029: therapeutic peptide (HLRKLRKRLLRDGDKLCDRLAEYCARAKEAFDR)”, the “binding to oxidized lipids relative to DMPC” value in data set [1] is “binding to at least one oxidized lipid that was equivalent or improved to binding against DMPC”. Moreover, the DMPC solubilizing activity entry in [2] is on record as “significant activity”. Moreover, in the data set on HepG2 cells, the “GAG dependence of cholesterol import” value is reported as “rely on GAG binding for cholesterol import activity”. Moreover, the “lipid-dependent LDLR binding (RU with lipid vs peptide alone)” value with LDLR [3] is on record as “lipid-dependent LDLR binding activity”.

As usually defined, the Kd is a measure of binding affinity in units of concentration. As to “LKDFGERVARALREQFEDLGQSTEELRVRLASHLRKLRKRLLRDADDLQKRLAVYQA [T-114]”, in the data set on C57BL/6J mice, the “in vivo tolerability (inflammation or retinal disruption)” value (“in vivo tolerability” for short) was “well tolerated”. The compound further showed a dissociation constant (Kd) on LDLR [4] of less than 10 µM.

By EC50 is commonly meant the concentration giving half of the maximal effect. Turning to “REFRALFKELADYFRDAW [T-084, therapeutic peptide]”, the cholesterol efflux titration entry in the data set on HMC3 cells (HMC3, 0-100 μM peptide, LXR agonist) is “concentration-dependent increase in cholesterol efflux”. For the same compound, the “cholesterol efflux in the presence of LXR agonist” value in the data set with HMC3 cells (HMC3, 20 μM peptide, 4 hours) is “greater cholesterol efflux”. Also, a half-maximal effect in data set [5] (EC50) was put at 16.1 µM.

For `CC(C)C[C@H](NC(=O)[C@H](CCCNC(=N)N)NC(=O)[C@H](CC(=O)O)NC(=O)[C@@H](NC(=O)[C@H](CC(C)C)NC(=O)[C@H](CCCCN)NC(=O)[C@H](CC(=O)O)NC(=O)CNC(=O)[C@H](CC(=O)O)NC(=O)[C@H](CCCNC(=N)N)NC(=O)[C@H](CC(C)C)NC(=O)[C@H](CC(C)C)NC(=O)[C@H](CCCNC(=N)N)NC(=O)[C@H](CCCCN)NC(=O)[C@H](CCCNC(=N)N)NC(=O)[C@H](CC(C)C)NC(=O)[C@H](CCCCN)NC(=O)[C@H](CCCNC(=N)N)NC(=O)[C@H](CC(C)C)NC(=O)[C@@H](N)Cc1c[nH]cn1)C(C)C)C(=O)N[C@@H](C)C(=O)N[C@@H](CCC(=O)O)C(=O)N[C@@H](Cc1ccc(O)cc1)C(=O)N[C@H](C(=O)N[C@@H](C)C(=O)N[C@@H](CCCNC(=N)N)C(=O)N[C@@H](C)C(=O)N[C@@H](CCCCN)C(=O)N[C@@H](CCC(=O)O)C(=O)N[C@@H](C)C(=O)N[C@@H](Cc1ccccc1)C(=O)N[C@@H](CC(=O)O)C(=O)N[C@@H](CCCNC(=N)N)C(=O)O)C(C)C` [T-077] (H-HLRKLRKRLLRDGDKLVDRLAEYVARAKEAFDR-OH), binding on LDLR [6] was put at a Kd of 33.2 ± 37.7 µM. Further, in the data set with ARPE-19 cells, the ARPE-19 cell viability entry is “substantial change in viability”.

For the compound “YKDFGERVERALGRQLEMLGQSTEELRVRLASHLRKLRKRLLRDADDLQKRLAVYQA [T-112]”, the “in vivo tolerability” value in the data set with C57BL/6J mice is on record as “all peptides except T-112 were well tolerated”. On LDLR [4], this compound yielded a Kd of less than 10 µM.

As to `CC(C)C[C@H](NC(=O)[C@H](Cc1c[nH]cn1)NC(=O)[C@H](CO)NC(=O)[C@H](C)NC(=O)[C@@H](N)CC(C)C)C(=O)N[C@@H](CCCNC(=N)N)C(=O)N[C@@H](CCCCN)C(=O)N[C@@H](CC(C)C)C(=O)N[C@@H](CCCNC(=N)N)C(=O)N[C@@H](CCCCN)C(=O)N[C@@H](CCCNC(=N)N)C(=O)N[C@@H](CC(C)C)C(=O)N[C@@H](CC(C)C)C(=O)N[C@@H](CCCNC(=N)N)C(=O)N[C@@H](CC(=O)O)C(=O)N[C@@H](C)C(=O)N[C@@H](CC(=O)O)C(=O)N[C@@H](CC(=O)O)C(=O)O` [T-073], the Kd at LDLR [6] turned out to be 4.27 ± 0.19 µM.

For the compound `CC(C)C[C@H](NC(=O)[C@H](C)NC(=O)[C@H](CCCNC(=N)N)NC(=O)[C@H](Cc1ccccc1)NC(=O)[C@H](CCCNC(=N)N)NC(=O)[C@H](CCC(=O)O)NC(=O)[C@H](Cc1c[nH]c2ccccc12)NC(=O)[C@H](C)NC(=O)[C@@H](N)CC(=O)O)C(=O)N[C@@H](Cc1ccccc1)C(=O)N[C@@H](CCCCN)C(=O)N[C@@H](CCC(=O)O)C(=O)N[C@@H](CC(C)C)C(=O)N[C@@H](C)C(=O)N[C@@H](CC(=O)O)C(=O)N[C@@H](Cc1ccc(O)cc1)C(=O)N[C@@H](Cc1ccccc1)C(=O)N[C@@H](CCCNC(=N)N)C(=O)O` [T-087] (H-DAWERFRALFKELADYFR-OH; N-terminus and C-terminus assumed), the “in vivo tolerability” value in the data set with C57BL/6J mice is “well tolerated”.

Values taken from patent US20260115250A1, “METHODS OF TREATING AGE-RELATED MACULAR DEGENERATION” (Character Biosciences, Inc., priority 2022, published 2026).
